Assay results published in ChEMBL document CHEMBL1201861, “Genomics of Drug Sensitity in Cancer screening data, Wellcome Trust Sanger Institute”.

Assays:
[1] = tested on: MCF7; experiment: cells; assay type: functional, cell-based; conditions: Homo sapiens;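 also: growth inhibition of human MCF7 cells, read out with a cell viability assay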
Description: SANGER: Inhibition of human MCF7 cell growth in a cell viability assay.

[2] = tested on: NALM-6; experiment: cells; assay type: functional, cell-based; conditions: Homo sapiens;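 also: growth inhibition of NALM-6 cells, read out with a cell viability assay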
Description: SANGER: Inhibition of human NALM-6 cell growth in a cell viability assay.

[3] = tested on: NCI-H650; experiment: cells; assay type: functional, cell-based; conditions: Homo sapiens;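 also: growth inhibition of NCI-H650 cells, read out by a viability assay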
Description: SANGER: Inhibition of human NCI-H650 cell growth in a cell viability assay.

[4] = tested on: HT-1080; experiment: cells; assay type: functional, cell-based; conditions: Homo sapiens
Description: SANGER: Inhibition of human HT-1080 cell growth in a cell viability assay.

[5] = tested on: CHP-126; experiment: cells; assay type: functional, cell-based; conditions: Homo sapiens
Description: SANGER: Inhibition of human CHP-126 cell growth in a cell viability assay.

[6] = tested on: UACC-62; experiment: cells; assay type: functional, cell-based; conditions: Homo sapiens;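 also: growth inhibition of human UACC-62 cells, read out by a cell viability assay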
Description: SANGER: Inhibition of human UACC-62 cell growth in a cell viability assay.

[7] = tested on: HuP-T3; experiment: cells; assay type: functional, cell-based; conditions: Homo sapiens;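 also: HuP-T3 cell growth inhibition, read out with a cell viability assay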
Description: SANGER: Inhibition of human HuP-T3 cell growth in a cell viability assay.

[8] = tested on: NCI-H460; experiment: cells; assay type: functional, cell-based; conditions: Homo sapiens;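 also: cell viability assay scoring growth inhibition of human NCI-H460 cells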
Description: SANGER: Inhibition of human NCI-H460 cell growth in a cell viability assay.

[9] = tested on: TALL-1; experiment: cells; assay type: functional, cell-based; conditions: Homo sapiens;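 also: growth inhibition of cultured human TALL-1 cells, read out by a cell viability assay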
Description: SANGER: Inhibition of human TALL-1 cell growth in a cell viability assay.

[10] = tested on: MKN-1; experiment: cells; assay type: functional, cell-based; conditions: Homo sapiens;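 also: growth inhibition of human MKN1 cells, read out by a cell viability measurement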
Description: SANGER: Inhibition of human MKN1 cell growth in a cell viability assay.

[11] = tested on: ESS-1; experiment: cells; assay type: functional, cell-based; conditions: Homo sapiens;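 also: growth inhibition of human ESS-1 cells, read out by a cell viability assay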
Description: SANGER: Inhibition of human ESS-1 cell growth in a cell viability assay.

[12] = tested on: GP5d; experiment: cells; assay type: functional, cell-based; conditions: Homo sapiens;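 also: growth inhibition of human GP5d cells, read out with a cell viability assay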
Description: SANGER: Inhibition of human GP5d cell growth in a cell viability assay.

[13] = tested on: NCI-H1437; experiment: cells; assay type: functional, cell-based; conditions: Homo sapiens;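 also: growth inhibition of human NCI-H1437 cells, read out by a cell viability assay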
Description: SANGER: Inhibition of human NCI-H1437 cell growth in a cell viability assay.

[14] = tested on: MeWo; experiment: cells; assay type: functional, cell-based; conditions: Homo sapiens;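 also: growth inhibition of MeWo cells, determined by a cell viability readout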
Description: SANGER: Inhibition of human Mewo cell growth in a cell viability assay.

[15] = tested on: SW1417; experiment: cells; assay type: functional, cell-based; conditions: Homo sapiens;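 also: growth inhibition of human SW1417 cells, read out with a cell viability assay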
Description: SANGER: Inhibition of human SW1417 cell growth in a cell viability assay.

[16] = tested on: SK-LU-1; experiment: cells; assay type: functional, cell-based; conditions: Homo sapiens;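 also: cell viability assay measuring growth inhibition of human SK-LU-1 cells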
Description: SANGER: Inhibition of human SK-LU-1 cell growth in a cell viability assay.

[17] = tested on: ACHN; experiment: cells; assay type: functional, cell-based; conditions: Homo sapiens;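 also: cell viability read-out used to gauge how strongly growth of human ACHN cells is suppressed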
Description: SANGER: Inhibition of human ACHN cell growth in a cell viability assay.

[18] = tested on: VM-CUB-1; experiment: cells; assay type: functional, cell-based; conditions: Homo sapiens;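 also: cell viability assay measuring growth inhibition of the human VM-CUB-1 cell line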
Description: SANGER: Inhibition of human VM-CUB-1 cell growth in a cell viability assay.

[19] = tested on: MRK-nu-1; experiment: cells; assay type: functional, cell-based; conditions: Homo sapiens;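 also: cell viability assay measuring growth suppression of human MRK-nu-1 cells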
Description: SANGER: Inhibition of human MRK-nu-1 cell growth in a cell viability assay.

[20] = tested on: 647-V; experiment: cells; assay type: functional, cell-based; conditions: Homo sapiens;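 also: growth inhibition of 647-V cells, read out with a cell viability assay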
Description: SANGER: Inhibition of human 647-V cell growth in a cell viability assay.

[21] = tested on: HCT-116; experiment: cells; assay type: functional, cell-based; conditions: Homo sapiens
Description: SANGER: Inhibition of human HCT-116 cell growth in a cell viability assay.

[22] = tested on: Daudi; experiment: cells; assay type: functional, cell-based; conditions: Homo sapiens;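 also: growth inhibition of Daudi cells, read out by a viability assay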
Description: SANGER: Inhibition of human Daudi cell growth in a cell viability assay.

[23] = tested on: HCC38; experiment: cells; assay type: functional, cell-based; conditions: Homo sapiens;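 also: cell viability assay on the human HCC38 cell line, with IC50 marking the concentration that inhibits cell growth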
Description: SANGER: Inhibition of human HCC38 cell growth in a cell viability assay.

[24] = tested on: GCT; experiment: cells; assay type: functional, cell-based; conditions: Homo sapiens;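 also: GCT cell line proliferation inhibition, read out with a cell viability assay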
Description: SANGER: Inhibition of human GCT cell growth in a cell viability assay.

[25] = tested on: HOP-92; experiment: cells; assay type: functional, cell-based; conditions: Homo sapiens;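 also: cell viability readout, with IC50 reflecting inhibition of HOP-92 cell growth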
Description: SANGER: Inhibition of human HOP-92 cell growth in a cell viability assay.

[26] = tested on: T-24; experiment: cells; assay type: functional, cell-based; conditions: Homo sapiens;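 also: growth inhibition of T-24 cells, read out with a cell viability assay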
Description: SANGER: Inhibition of human T-24 cell growth in a cell viability assay.

[27] = tested on: MKN-7; experiment: cells; assay type: functional, cell-based; conditions: Homo sapiens;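 also: growth inhibition of MKN-7 cells, read out with a cell viability assay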
Description: SANGER: Inhibition of human MKN7 cell growth in a cell viability assay.

[28] = tested on: HT55; experiment: cells; assay type: functional, cell-based; conditions: Homo sapiens;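 also: cell viability readout measuring growth inhibition of human HT55 cells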
Description: SANGER: Inhibition of human HT55 cell growth in a cell viability assay.

[29] = tested on: HCC1937; experiment: cells; assay type: functional, cell-based; conditions: Homo sapiens;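 also: growth inhibition measured with a cell viability read-out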
Description: SANGER: Inhibition of human HCC1937 cell growth in a cell viability assay.

[30] = tested on: HOS; experiment: cells; assay type: functional, cell-based; conditions: Homo sapiens;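 also: growth inhibition of human HOS cells, read out with a cell viability assay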
Description: SANGER: Inhibition of human HOS cell growth in a cell viability assay.

[31] = tested on: NCI-H661; experiment: cells; assay type: functional, cell-based; conditions: Homo sapiens;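 also: cell viability assay read-out, IC50 being the concentration that inhibits growth of the cells by half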
Description: SANGER: Inhibition of human NCI-H661 cell growth in a cell viability assay.

[32] = tested on: KYSE-510; experiment: cells; assay type: functional, cell-based; conditions: Homo sapiens;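 also: cell viability readout used to measure how strongly growth of the cell line is suppressed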
Description: SANGER: Inhibition of human KYSE-510 cell growth in a cell viability assay.

[33] = tested on: MFE-280; experiment: cells; assay type: functional, cell-based; conditions: Homo sapiens;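 also: growth inhibition of MFE-280 cells, determined with a cell viability readout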
Description: SANGER: Inhibition of human MFE-280 cell growth in a cell viability assay.

[34] = tested on: IGR-1; experiment: cells; assay type: functional, cell-based; conditions: Homo sapiens;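 also: growth inhibition of human IGR-1 cells, read out with a cell viability assay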
Description: SANGER: Inhibition of human IGR-1 cell growth in a cell viability assay.

[35] = tested on: NCI-H28; experiment: cells; assay type: functional, cell-based; conditions: Homo sapiens;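 also: growth inhibition of human NCI-H28 cells, read out as cell viability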
Description: SANGER: Inhibition of human NCI-H28 cell growth in a cell viability assay.

[36] = tested on: NCI-H1573; experiment: cells; assay type: functional, cell-based; conditions: Homo sapiens;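 also: growth inhibition of NCI-H1573 cells, read out with a cell viability assay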
Description: SANGER: Inhibition of human NCI-H1573 cell growth in a cell viability assay.

[37] = tested on: NCI-H2228; experiment: cells; assay type: functional, cell-based; conditions: Homo sapiens;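 also: growth inhibition of human NCI-H2228 cells, read out by a cell viability assay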
Description: SANGER: Inhibition of human NCI-H2228 cell growth in a cell viability assay.

[38] = tested on: EB-3; experiment: cells; assay type: functional, cell-based; conditions: Homo sapiens;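 also: human EB-3 cells, growth inhibition read out via a cell viability assay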
Description: SANGER: Inhibition of human EB-3 cell growth in a cell viability assay.

[39] = tested on: CP50-MEL-B; experiment: cells; assay type: functional, cell-based; conditions: Homo sapiens;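 also: growth inhibition of the human cell line, measured with a cell viability read-out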
Description: SANGER: Inhibition of human CP50-MEL-B cell growth in a cell viability assay.

[40] = tested on: COLO-678; experiment: cells; assay type: functional, cell-based; conditions: Homo sapiens
Description: SANGER: Inhibition of human COLO-678 cell growth in a cell viability assay.

[41] = tested on: OAW-28; experiment: cells; assay type: functional, cell-based; conditions: Homo sapiens;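 also: growth inhibition of OAW-28 cells, read out with a cell viability assay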
Description: SANGER: Inhibition of human OAW-28 cell growth in a cell viability assay.

[42] = tested on: 8305C; experiment: cells; assay type: functional, cell-based; conditions: Homo sapiens
Description: SANGER: Inhibition of human 8305C cell growth in a cell viability assay.

[43] = tested on: BHY; experiment: cells; assay type: functional, cell-based; conditions: Homo sapiens;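 also: cell growth inhibition read out by a viability assay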
Description: SANGER: Inhibition of human BHY cell growth in a cell viability assay.

[44] = tested on: SK-MEL-28; experiment: cells; assay type: functional, cell-based; conditions: Homo sapiens;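 also: growth inhibition of human SK-MEL-28 cells, read out with a cell viability assay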
Description: SANGER: Inhibition of human SK-MEL-28 cell growth in a cell viability assay.

[45] = tested on: SU-DHL-1; experiment: SANGER: Inhibition of human SU-DHL-1 cell growth in a cell viability assay.; assay type: functional, cell-based
[46] = tested on: NCI-H2405; experiment: cells; assay type: functional, cell-based; conditions: Homo sapiens;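 also: growth inhibition of the human cell line, read out with a cell viability assay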
Description: SANGER: Inhibition of human NCI-H2405 cell growth in a cell viability assay.

[47] = tested on: NCI-H1755; experiment: cells; assay type: functional, cell-based; conditions: Homo sapiens;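 also: cell viability readout used to measure growth inhibition of NCI-H1755 cells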
Description: SANGER: Inhibition of human NCI-H1755 cell growth in a cell viability assay.

[48] = tested on: COLO-741; experiment: cells; assay type: functional, cell-based; conditions: Homo sapiens
Description: SANGER: Inhibition of human COLO-741 cell growth in a cell viability assay.

[49] = tested on: UACC-893; experiment: cells; assay type: functional, cell-based; conditions: Homo sapiens
Description: SANGER: Inhibition of human UACC-893 cell growth in a cell viability assay.

[50] = tested on: HuCCT-1; experiment: cells; assay type: functional, cell-based, HuCCT1; conditions: Homo sapiens;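 also: growth inhibition of HuCCT-1 cells, read out by a cell viability assay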
Description: SANGER: Inhibition of human HuCCT1 cell growth in a cell viability assay.

[51] = tested on: DoTc2-4510; experiment: cells; assay type: functional, cell-based; conditions: Homo sapiens
[52] = tested on: TUR; experiment: cells; assay type: functional, cell-based; conditions: Homo sapiens;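 also: growth inhibition of human TUR cells, read out with a cell viability assay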
Description: SANGER: Inhibition of human TUR cell growth in a cell viability assay.

[53] = tested on: RVH-421; experiment: cells; assay type: functional, cell-based; conditions: Homo sapiens
Description: SANGER: Inhibition of human RVH-421 cell growth in a cell viability assay.

[54] = tested on: BPH-1; experiment: cells; assay type: functional, cell-based; conditions: Homo sapiens;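 also: cell viability assay measuring growth inhibition of human BPH-1 cells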
Description: SANGER: Inhibition of human BPH-1 cell growth in a cell viability assay.

[55] = tested on: BC-3; experiment: cells; assay type: functional, cell-based; conditions: Homo sapiens;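 also: cell viability assay measuring growth inhibition of human BC-3 cells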
Description: SANGER: Inhibition of human BC-3 cell growth in a cell viability assay.

[56] = tested on: DU-145; experiment: cells; assay type: functional, cell-based; conditions: Homo sapiens
Description: SANGER: Inhibition of human DU-145 cell growth in a cell viability assay.

[57] = tested on: LC-1F; experiment: cells; assay type: functional, cell-based; conditions: Homo sapiens;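 also: growth inhibition of human LC-1F cells, read out with a cell viability assay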
Description: SANGER: Inhibition of human LC-1F cell growth in a cell viability assay.

[58] = tested on: A204; experiment: cells; assay type: functional, cell-based; conditions: Homo sapiens;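 also: growth inhibition of human A204 cells, read out with a cell viability assay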
Description: SANGER: Inhibition of human A204 cell growth in a cell viability assay.

[59] = tested on: NCI-H596; experiment: cells; assay type: functional, cell-based; conditions: Homo sapiens;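 also: growth inhibition of NCI-H596 cells, read out with a cell viability assay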
Description: SANGER: Inhibition of human NCI-H596 cell growth in a cell viability assay.

[60] = tested on: SW1573; experiment: cells; assay type: functional, cell-based; conditions: Homo sapiens;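 also: growth inhibition of SW1573 cells, read out with a cell viability assay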
Description: SANGER: Inhibition of human SW1573 cell growth in a cell viability assay.

[61] = tested on: BC1 cell line; experiment: SANGER: Inhibition of human BC-1 cell growth in a cell viability assay.; assay type: functional, cell-based
[62] = tested on: SF-295; experiment: cells; assay type: functional, cell-based; conditions: Homo sapiens
Description: SANGER: Inhibition of human SF295 cell growth in a cell viability assay.

[63] = tested on: SW1990; experiment: cells; assay type: functional, cell-based; conditions: Homo sapiens
Description: SANGER: Inhibition of human SW1990 cell growth in a cell viability assay.

[64] = tested on: SAOS-2; experiment: cells; assay type: functional, cell-based; conditions: Homo sapiens
Description: SANGER: Inhibition of human Saos-2 cell growth in a cell viability assay.

## N#C/C(=C1/Nc2ccccc2S1)c1ccnc(NCCc2cccnc2)n1
[1]
  IC50: 1.5 µM
[2]
  IC50: 4.49 µM
[3]
  IC50: > 8 µM
[4]
  IC50: > 8 µM
[5]
  IC50: > 8 µM
[6]
  IC50: > 8 µM
[7]
  IC50: > 8 µM
[8]
  IC50: > 8 µM
[9]
  IC50: > 8 µM
[10]
  IC50: 2.9 µM
[11]
  IC50: 6.49 µM
[12]
  IC50: 7.52 µM
[13]
  IC50: 4.15 µM
[14]
  IC50: > 8 µM
[15]
  IC50: > 8 µM
[16]
  IC50: 4.64 µM
[17]
  IC50: 2.35 µM
[18]
  IC50: > 8 µM
[19]
  IC50: > 8 µM
[20]
  IC50: > 8 µM
[21]
  IC50: > 8 µM
[22]
  IC50: 6.54 µM
[23]
  IC50: 5.3 µM
[24]
  IC50: 3.6 µM
[25]
  IC50: > 8 µM
[26]
  IC50: > 8 µM
[27]
  IC50: > 8 µM
[28]
  IC50: > 8 µM
[29]
  IC50: 3.25 µM
[30]
  IC50: > 8 µM
[31]
  IC50: > 8 µM
[32]
  IC50: > 8 µM
[33]
  IC50: > 8 µM
[34]
  IC50: 4.68 µM
[35]
  IC50: 3.29 µM
[36]
  IC50: > 8 µM
[37]
  IC50: 4.48 µM
[38]
  IC50: > 8 µM
[39]
  IC50: > 8 µM
[40]
  IC50: > 8 µM
[41]
  IC50: > 8 µM
[42]
  IC50: > 8 µM
[43]
  IC50: > 8 µM
[44]
  IC50: > 8 µM
[45]
  IC50: > 8 µM
[46]
  IC50: 5.97 µM
[47]
  IC50: > 8 µM
[48]
  IC50: > 8 µM
[49]
  IC50: > 8 µM
[50]
  IC50: 7.65 µM
[51]
  IC50: 2.08 µM
[52]
  IC50: > 8 µM
[53]
  IC50: > 8 µM
[54]
  IC50: > 8 µM
[55]
  IC50: 7.46 µM
[56]
  IC50: > 8 µM
[57]
  IC50: > 8 µM
[58]
  IC50: 7.34 µM
[59]
  IC50: > 8 µM
[60]
  IC50: > 8 µM
[61]
  IC50: 5.38 µM
[62]
  IC50: 3.04 µM
[63]
  IC50: > 8 µM
[64]
  IC50: > 8 µM

## C/C(O)=C(\C#N)C(=O)Nc1cc(Br)ccc1Br
[1]
  IC50: > 16 µM
[2]
  IC50: > 16 µM
[3]
  IC50: > 16 µM
[4]
  IC50: > 16 µM
[5]
  IC50: > 16 µM
[6]
  IC50: > 16 µM
[7]
  IC50: > 16 µM
[8]
  IC50: > 16 µM
[9]
  IC50: > 16 µM
[10]
  IC50: > 16 µM
[11]
  IC50: > 16 µM
[12]
  IC50: > 16 µM
[13]
  IC50: > 16 µM
[14]
  IC50: > 16 µM
[15]
  IC50: > 16 µM
[16]
  IC50: > 16 µM
[17]
  IC50: > 16 µM
[18]
  IC50: > 16 µM
[19]
  IC50: > 16 µM
[20]
  IC50: > 16 µM
[21]
  IC50: > 16 µM
[22]
  IC50: > 16 µM
[23]
  IC50: > 16 µM
[24]
  IC50: > 16 µM
[25]
  IC50: > 16 µM
[26]
  IC50: > 16 µM
[27]
  IC50: > 16 µM
[28]
  IC50: > 16 µM
[29]
  IC50: > 16 µM
[30]
  IC50: > 16 µM
[31]
  IC50: > 16 µM
[32]
  IC50: > 16 µM
[33]
  IC50: > 16 µM
[34]
  IC50: > 16 µM
[35]
  IC50: > 16 µM
[36]
  IC50: > 16 µM
[37]
  IC50: > 16 µM
[38]
  IC50: > 16 µM
[39]
  IC50: > 16 µM
[40]
  IC50: > 16 µM
[41]
  IC50: > 16 µM
[42]
  IC50: > 16 µM
[43]
  IC50: > 16 µM
[44]
  IC50: > 16 µM
[45]
  IC50: > 16 µM
[46]
  IC50: > 16 µM
[47]
  IC50: > 16 µM
[48]
  IC50: > 16 µM
[49]
  IC50: > 16 µM
[50]
  IC50: > 16 µM
[51]
  IC50: > 16 µM
[52]
  IC50: > 16 µM
[53]
  IC50: > 16 µM
[54]
  IC50: > 16 µM
[55]
  IC50: > 16 µM
[56]
  IC50: > 16 µM
[57]
  IC50: > 16 µM
[58]
  IC50: > 16 µM
[59]
  IC50: > 16 µM
[60]
  IC50: > 16 µM
[61]
  IC50: > 16 µM
[62]
  IC50: > 16 µM
[63]
  IC50: > 16 µM
[64]
  IC50: > 16 µM
